Experimental data reported in patent US12559461B2, “Antibiotic adjuvant compounds” (UNIVERSITY OF NOTRE DAME DU LAC, priority 2020, dated 2026).
Read-outs that look alike come from different tables or passages of the source. Each block holds one compound with its values, some of them ahead of it.

How the values were obtained:
[1] = tested on: AB5075; experiment: Broth microdilution clarithromycin (CLR) potentiation and dose-response of adjuvant; assay type: cell-based, Acinetobacter baumannii
Description: (§1) Bacterial Strains and Antimicrobial Agents. Acinetobacter baumannii clinical isolate 5075 was obtained from Dr. Colin Manoil at the University of Washington. Colonies were grown on lysogeny broth (LB) agar. Cation-adjusted Mueller-Hinton Broth (CAMHB) (catalog number 212322) were purchased from BD Diagnostics. LB broth was purchased from Fisher Scientific (catalog number BP9722-2). […] Colistin sulfate salt (catalog number C4461) was purchased from Sigma Aldrich. All assays were completed in duplicate and repeated at least two separate times. All compounds were dissolved as their HCl salts in molecular biology grade DMSO as 10 or 100 mM stock solutions and stored at −20° C. Colistin was dissolved in sterile water while clarithromycin was dissolved in molecular biology grade DMSO.
(§2) Broth microdilution method for antibiotic potentiation. Day cultures (6 h) of bacteria in CAMHB were subcultured to 5×10^5 CFU/mL in CAMHB. Aliquots (4 mL) were placed in culture tubes and dosed with compound from 10 mM stock samples to give the desired concentration of the compound to be tested against the particular bacterial strain; this insured non-toxic DMSO concentrations ≤0.3% in each well. 1 mL of the resulting solution was placed in a separate culture and dosed with antibiotic at the highest concentration to be tested. Bacteria treated with antibiotic alone served as the control. Row one of a 96-well plate was filled with 200 μL of the antibiotic/2-AI solution, and rows 2-12 were filled with 100 μL each of the remaining 4 mL of bacterial subculture containing adjuvant at the desired concentration, except for the control lane which contained only bacterial subculture. Row one was then mixed five times, and 100 μL was transferred to row two, which was then mixed five times before being transferred to row three. This process was repeated until all rows had been mixed, except for row twelve which would have only 2-AI to serve as a control to monitor potential toxicity. The 96-well plate was then covered in Glad Press n'Seal and incubated under stationary conditions at 37° C. for 16 h. MIC values were determined as the lowest concentration at which no bacterial growth was observed, and fold reductions were determined by comparison to antibiotic control lane.
(§3) Dose-response of Adjuvant Assay. The procedure for ‘broth microdilution method for antibiotic potentiation’ was followed using 4 mL aliquots of adjuvant at various concentrations: 0, 5, 7.5, 10, 15, 20, 25, and 30 μM.

[2] = tested on: A. baumannii isolates (23 strains); experiment: Minimum inhibitory concentration against AB isolates; assay type: cell-based, Acinetobacter baumannii; conditions: for CLR MIC: CLR alone; for MIC: Acinetobacter baumannii, compound alone, read-out: Minimum inhibitory concentration of compound
Description: (§4) Broth microdilution method for MIC determination. Day cultures (6 h) of each bacterial strain in cation adjusted Mueller Hinton II broth (CAMHB, Fisher Scientific U.S.) were subcultured to 5×10^5 CFU/mL in CAMHB. Aliquots (1 mL) were placed in culture tubes and compound was added from 10 mM stock samples in DMSO, such that compound concentration equaled highest concentration tested (200 μM). Samples were then aliquoted (200 μL) into the first wells of a 96-well plate, with all remaining wells being filled with 100 μL of initial bacterial subculture. Row one wells were mixed five times, before 100 μL was transferred to row two. Row two was then mixed five times, and 100 μL was transferred to row three. This process was repeated until the final row had been mixed; this served to serially dilute the compound. Plates were then covered with GLAD Press n'Seal and incubated under stationary conditions at 37° C. for 16 h. MIC values were then recorded as the lowest concentration at which no bacterial growth was observed.

[3] = tested on: AB5075; experiment: Evolution of clarithromycin resistance by serial passage; assay type: cell-based, Acinetobacter baumannii
Description: A. baumannii 5075 was grown in CAMHB overnight then subcultured (5×10^5 CFU/mL) in 6 mL of fresh CAMHB. Adjuvant was added into this 6-mL subculture at either 10 or 30 μM concentrations. […] This was serially repeated for a period of nine days.

[4] = tested on: AB5075; conditions: CLR alone, previously reported; cited from earlier work
[5] = tested on: AB5075; experiment: Broth microdilution MIC of compound alone (standalone toxicity); assay type: cell-based, Acinetobacter baumannii
Description: as §1, §4

[6] = tested on: AB5075; experiment: Colistin MIC in presence of adjuvant (broth microdilution antibiotic potentiation); assay type: cell-based, Acinetobacter baumannii; conditions: compound tested at 30 μM
Description: as §1, §2, §3

[7] = tested on: A. baumannii isolates (23 strains); experiment: Clarithromycin potentiation against AB isolates; assay type: cell-based, Acinetobacter baumannii; conditions: adjuvant at 7.5 μM
Description: as §2

Compound: CC[C@H]1OC(=O)[C@H](C)[C@@H](O[C@H]2C[C@@](C)(OC)[C@@H](O)[C@H](C)O2)[C@H](C)[C@@H](O[C@@H]2O[C@H](C)C[C@H](N(C)C)[C@H]2O)[C@](C)(OC)C[C@@H](C)C(=O)[C@H](C)[C@@H](O)[C@]1(C)O [CLR, clarithromycin, reference compound]
CLR MIC ([1]; CLR alone, no adjuvant): 32 µg/mL
CLR MIC ([2]; A. baumannii strain 3560): 32 µg/mL
CLR MIC ([2]; A. baumannii strain 3785): 64 µg/mL
CLR MIC ([2]; A. baumannii strain 3806): 16 µg/mL
CLR MIC ([2]; A. baumannii strain 3927): 32 µg/mL
CLR MIC ([2]; A. baumannii strain 4025): 64 µg/mL
CLR MIC ([2]; A. baumannii strain 4026): 64 µg/mL
CLR MIC ([2]; A. baumannii strain 4027): 64 µg/mL
CLR MIC ([2]; A. baumannii strain 4052): 32 µg/mL
CLR MIC ([2]; A. baumannii strain 4269): 32 µg/mL
CLR MIC ([2]; A. baumannii strain 4448): 32 µg/mL
CLR MIC ([2]; A. baumannii strain 4456): 32 µg/mL
CLR MIC ([2]; A. baumannii strain 4490): 32 µg/mL
CLR MIC ([2]; A. baumannii strain 4498): 64 µg/mL
CLR MIC ([2]; A. baumannii strain 4795): 32 µg/mL
CLR MIC ([2]; A. baumannii strain 4857): 64 µg/mL
CLR MIC ([2]; A. baumannii strain 4878): 32 µg/mL
CLR MIC ([2]; A. baumannii strain 4957): 32 µg/mL
CLR MIC ([2]; A. baumannii strain 4991): 32 µg/mL
CLR MIC ([2]; A. baumannii strain 5001): 32 µg/mL
CLR MIC ([2]; A. baumannii strain 5197): 64 µg/mL
CLR MIC ([2]; A. baumannii strain 5256): 32 µg/mL
CLR MIC ([2]; A. baumannii strain 5711): 64 µg/mL
CLR MIC ([2]; A. baumannii strain 8967): 16 µg/mL
CLR MIC ([3]; CLR-alone exposure of AB5075, day 0): 32 µg/mL
CLR MIC ([3]; CLR-alone exposure of AB5075, day 4): 128 µg/mL
CLR MIC ([3]; CLR-alone exposure of AB5075, day 6): 512 µg/mL
CLR MIC ([3]; CLR-resistant AB5075 mutant from CLR-alone passaging, no adjuvant): 512 µg/mL
CLR MIC ([3]; passaging with CLR and 30 μM adjuvant 1, day 2 and day 9, without adjuvant): 32 µg/mL
CLR MIC ([3]; serial passage with CLR + adjuvant 1 (30 μM), day 2, compound 1 tested at 0 μM): 16 µg/mL
CLR MIC ([3]; serial passage with CLR + adjuvant 1 (30 μM), day 4, compound 1 tested at 0 μM): 32 µg/mL
CLR MIC ([3]; serial passage with CLR + adjuvant 1 (30 μM), day 6, compound 1 tested at 0 μM): 32 µg/mL
CLR MIC ([3]; serial passage with CLR + adjuvant 1 (30 μM), day 8, compound 1 tested at 0 μM): 32 µg/mL
CLR MIC ([3]; serial passage with CLR + adjuvant 1 (30 μM), day 10, compound 1 tested at 0 μM): 32 µg/mL
CLR MIC [4]: 32 µg/mL

CLR MIC ([1]; compound tested at 7.5 μM): 8 µg/mL
CLR MIC ([1]; compound tested at 10 μM): 4 µg/mL
Fold Reduction of CLR MIC ([1]; compound tested at 10 μM): eight
CLR MIC ([1]; compound tested at 20 μM): 0.5 µg/mL
Fold Reduction of CLR MIC ([1]; compound tested at 30 μM): 64 fold
Colistin MIC [6]: 4 µg/mL
Compound: Cl.Nc1nc(-c2ccc(NC(=O)c3ccc(Cl)c(Cl)c3)cc2)c[nH]1 [Compound 4r]
MIC [5]: 100 µM

CLR MIC + adjuvant ([7]; A. baumannii strain 3560): 1 µg/mL
CLR MIC + adjuvant ([7]; A. baumannii strain 3785): 1 µg/mL
CLR MIC + adjuvant ([7]; A. baumannii strain 3806): 0.25 µg/mL
CLR MIC + adjuvant ([7]; A. baumannii strain 3927): 0.5 µg/mL
CLR MIC + adjuvant ([7]; A. baumannii strain 4025): 1 µg/mL
CLR MIC + adjuvant ([7]; A. baumannii strain 4026): 1 µg/mL
CLR MIC + adjuvant ([7]; A. baumannii strain 4027): 1 µg/mL
CLR MIC + adjuvant ([7]; A. baumannii strain 4052): 0.5 µg/mL
CLR MIC + adjuvant ([7]; A. baumannii strain 4269): 2 µg/mL
CLR MIC + adjuvant ([7]; A. baumannii strain 4448): 0.5 µg/mL
CLR MIC + adjuvant ([7]; A. baumannii strain 4456): 1 µg/mL
CLR MIC + adjuvant ([7]; A. baumannii strain 4490): 1 µg/mL
CLR MIC + adjuvant ([7]; A. baumannii strain 4498): 2 µg/mL
CLR MIC + adjuvant ([7]; A. baumannii strain 4795): 0.5 µg/mL
CLR MIC + adjuvant ([7]; A. baumannii strain 4857): 0.5 µg/mL
CLR MIC + adjuvant ([7]; A. baumannii strain 4878): 0.5 µg/mL
CLR MIC + adjuvant ([7]; A. baumannii strain 4957): 0.5 µg/mL
CLR MIC + adjuvant ([7]; A. baumannii strain 4991): 0.5 µg/mL
CLR MIC + adjuvant ([7]; A. baumannii strain 5001): 1 µg/mL
CLR MIC + adjuvant ([7]; A. baumannii strain 5197): 1 µg/mL
CLR MIC + adjuvant ([7]; A. baumannii strain 5256): 0.25 µg/mL
CLR MIC + adjuvant ([7]; A. baumannii strain 5711): 1 µg/mL
CLR MIC + adjuvant ([7]; A. baumannii strain 8967): 0.25 µg/mL
CLR MIC ([1]; compound tested at 5 μM): 4 µg/mL
Fold Reduction of CLR MIC ([1]; compound tested at 5 μM): 8 fold
CLR MIC ([1]; compound tested at 7.5 μM): 0.25 µg/mL
Fold Reduction of CLR MIC ([1]; compound tested at 7.5 μM): 128 fold
CLR MIC ([1]; compound tested at 15 μM): 0.125 µg/mL
Fold Reduction of CLR MIC ([1]; compound tested at 15 μM): 256 fold
MIC ([2]; A. baumannii strain 3560): 25 µM
MIC ([2]; A. baumannii strain 3785): 50 µM
MIC ([2]; A. baumannii strain 3806): 25 µM
MIC ([2]; A. baumannii strain 3927): 100 µM
MIC ([2]; A. baumannii strain 4025): 100 µM
MIC ([2]; A. baumannii strain 4026): 50 µM
MIC ([2]; A. baumannii strain 4027): 50 µM
MIC ([2]; A. baumannii strain 4052): 50 µM
MIC ([2]; A. baumannii strain 4269): 50 µM
MIC ([2]; A. baumannii strain 4448): 100 µM
MIC ([2]; A. baumannii strain 4456): 25 µM
MIC ([2]; A. baumannii strain 4490): 100 µM
MIC ([2]; A. baumannii strain 4498): 50 µM
MIC ([2]; A. baumannii strain 4795): 25 µM
MIC ([2]; A. baumannii strain 4857): 50 µM
MIC ([2]; A. baumannii strain 4878): 50 µM
MIC ([2]; A. baumannii strain 4957): 50 µM
MIC ([2]; A. baumannii strain 4991): 50 µM
MIC ([2]; A. baumannii strain 5001): 50 µM
MIC ([2]; A. baumannii strain 5197): 25 µM
MIC ([2]; A. baumannii strain 5256): 25 µM
MIC ([2]; A. baumannii strain 5711): 25 µM
MIC ([2]; A. baumannii strain 8967): 100 µM
Compound: Cl.Nc1nc(-c2ccc(NC(=O)Nc3cc(Br)cc(Br)c3)cc2)c[nH]1 [Compound 20a, 1-(4-(2-amino-1H-imidazol-4-yl)phenyl)-3-(3,5-dibromophenyl)urea hydrochloride]
MIC ([5]; Acinetobacter baumannii): 50 µM
